US20250313569A1, “Pharmaceutical Compounds And Compositions As Modulators Of MAS-Related G-Protein Receptor X2” (Enanta Pharmaceuticals, Inc., priority 2024, published 2025)

Target: T1, MRGPRX2 LAD2 (Homo sapiens, UniProt Q96LB1)
T1 construct: host or cells: LAD2 human mast cells
T1 sequence (Q96LB1 1-330): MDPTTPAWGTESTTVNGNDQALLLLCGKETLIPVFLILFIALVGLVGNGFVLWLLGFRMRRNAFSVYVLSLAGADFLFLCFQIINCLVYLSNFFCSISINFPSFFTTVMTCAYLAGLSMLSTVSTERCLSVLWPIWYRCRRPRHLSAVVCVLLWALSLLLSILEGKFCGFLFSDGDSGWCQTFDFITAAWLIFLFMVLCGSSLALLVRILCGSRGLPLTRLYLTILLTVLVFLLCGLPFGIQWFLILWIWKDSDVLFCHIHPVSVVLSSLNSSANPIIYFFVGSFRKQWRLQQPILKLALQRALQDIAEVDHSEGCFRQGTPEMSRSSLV
Assay: LAD2 β-hexosaminidase release assay (degranulation), Cortistatin-14 at EC75
Type: cell-based
Settings: LAD2 cells; 1 hour compound incubation, Cortistatin-14 at EC75 for 30 minutes; percent degranulation (β-hexosaminidase)
Procedure: LAD2 cells obtained from the NIH were cultured in StemPro34 (Gibco) serum-free media supplemented with GlutaMax, penicillin and streptomycin, and 100 ng/mL SCF (Invitrogen). Cells were maintained in a 37° C., 5% CO2 humidified incubator at a concentration of 2-5E5 cells/mL, with hemidepletion once a week.
One day prior to the assay, cells were starved of SCF at a concentration of 2.3E5 cells/mL. On the day of the assay cells were washed twice in Tyrode's Buffer containing 0.04% BSA (assay buffer) and plated in a 96 well-v-bottom assay plate at 20,000 cells per well in 80 μL of assay buffer. Compounds were solubilized at 10 mM DMSO and added as a 10-fold overconcentrated 8-point curve in assay buffer in a volume of 10 μL using the JANUS liquid handler. Assay plates were incubated for 1 hour at 37° C. Cortistatin-14 was diluted in assay buffer to […] its predetermined EC75 and added to the assay plates in a volume of 10 μL. Assay plates were incubated at 37° C. for 30 minutes. After incubation, cells were pelleted and 50 μL of supernatant from each well was transferred to a 96 well flat bottom plate containing 100 μL of substrate solution (3.5 mg/mL p-Nitrophenyl-N-acetyl-β-D-glucosaminide (Sigma Aldrich) in 40 mM Citrate Buffer (Thermo Fisher)). The remaining cell pellets were lysed with 150 μL of 0.1% Triton-X-100 and mixed thoroughly. 50 μL of lysate was transferred to a 96-well flat bottom plate containing 100 μL of substrate solution. Plates with supernatants and lysates were incubated at 37° C. for 90 minutes prior to addition of 50 μL of 400 mM Glycine buffer (pH 10.7). The plates were read on a Perkin Elmer Envision plate reader at an Abs of 405 nanometers. Percent degranulation was calculated and Xlfit was used to calculate an EC50 value for each compound using a 4-parameter logistic curve fitting model. EC50 ranges are reported as follows: A<100 nM; B 0.1-1 μM; C>1 μM.

| Compound | EC50 |
| --- | --- |
| CC(C)(O)Cn1cc(C(=O)N[C@H]2C[C@@H](Nc3cc(C(F)(F)F)nc4ccc(Cl)cc34)CN(C3CC(F)(F)C3)C2)c(Cl)n1 [Example 76] | 100 to 1000 nM |
| O=C(N[C@H]1C[C@@H](Nc2cc(C(F)(F)F)nc3ccc(Cl)cc23)CN(C2COC2)C1)c1cn(CC(F)(F)F)nc1C1CC1 [Example 91] | 100 to 1000 nM |
| CC(=O)N1C[C@@H](NC(=O)c2c[nH]c3cccnc23)C[C@@H](Nc2cc(C(F)(F)F)nc3ccc(Cl)cc23)C1 [Example 97] | < 100 nM |
| CC(=O)N1C[C@@H](NC(=O)c2cn(CC(C)(C)O)c3ncccc23)C[C@@H](Nc2cc(C(F)(F)F)nc3ccc(Cl)cc23)C1 [Example 98] | < 100 nM |
| CC(=O)N1C[C@@H](NC(=O)c2cn(CC(F)F)nc2C(F)(F)F)C[C@@H](Nc2cc(C(F)(F)F)nc3ccc(Cl)cc23)C1 [Example 99] | < 100 nM |
| CC(=O)N1C[C@@H](NC(=O)c2cn(CC(F)(F)F)nc2C2CCC2)C[C@@H](Nc2cc(C(F)(F)F)nc3ccc(Cl)cc23)C1 [Example 100] | < 100 nM |
| CC(=O)N1C[C@@H](NC(=O)c2cn(CS(C)(=O)=O)nc2Cl)C[C@@H](Nc2cc(C(F)(F)F)nc3ccc(Cl)cc23)C1 [Example 101] | < 100 nM |
| COCc1nn(CC(F)(F)F)cc1C(=O)N[C@H]1C[C@@H](Nc2cc(C(F)(F)F)nc3ccc(Cl)cc23)CN(C(C)=O)C1 [Example 102] | < 100 nM |
| CC(=O)N1C[C@@H](NC(=O)c2cn(CC(C)(C)O)nc2C(F)F)C[C@@H](Nc2cc(C(F)(F)F)nc3ccc(Cl)cc23)C1 [Example 103] | < 100 nM |
| CC(=O)N1C[C@@H](NC(=O)c2cn(CC(C)(C)O)nc2C)C[C@@H](Nc2cc(C(F)(F)F)nc3ccc(Cl)cc23)C1 [Example 104] | < 100 nM |
| CC(=O)N1C[C@@H](NC(=O)c2cn(C3CCS(=O)(=O)CC3)nc2C(F)(F)F)C[C@@H](Nc2cc(C(F)(F)F)nc3ccc(Cl)cc23)C1 [Example 106] | < 100 nM |
| CC(=O)N1C[C@@H](NC(=O)c2cn(C3CC(F)(F)C3)nc2C(F)F)C[C@@H](Nc2cc(C(F)(F)F)nc3ccc(Cl)cc23)C1 [Example 108] | < 100 nM |
| CC(=O)N1C[C@@H](NC(=O)c2cn(CC(F)(F)F)nc2C2CC2)C[C@@H](Nc2cc(C(F)(F)F)nc3ccc(Cl)cc23)C1 [Example 109] | < 100 nM |
| CC(=O)N1C[C@@H](NC(=O)c2cn(CC(F)F)nc2C2CC2)C[C@@H](Nc2cc(C(F)(F)F)nc3ccc(Cl)cc23)C1 [Example 110] | < 100 nM |
| CC(=O)N1C[C@@H](NC(=O)c2ccc3[nH]ccc3c2)C[C@@H](Nc2cc(C(F)(F)F)nc3ccc(Cl)cc23)C1 [Example 111] | < 100 nM |
| CC(=O)N1C[C@@H](NC(=O)c2ccc3cc[nH]c3c2)C[C@@H](Nc2cc(C(F)(F)F)nc3ccc(Cl)cc23)C1 [Example 112] | < 100 nM |
| CC(=O)N1C[C@@H](NC(=O)c2cn(CC(F)(F)F)cc2C(F)(F)F)C[C@@H](Nc2cc(C(F)(F)F)nc3ccc(Cl)cc23)C1 [Example 113] | < 100 nM |
| O=C(N[C@H]1C[C@@H](Nc2cc(C(F)(F)F)nc3ccc(Cl)cc23)CN(C(=O)C(F)F)C1)c1cn(C[C@@H](O)C(F)(F)F)nc1Cl [Example 116] | < 100 nM |
| Cc1nn(CC(C)(C)O)cc1C(=O)N[C@H]1C[C@@H](Nc2cc(C(F)(F)F)nc3ccc(Cl)cc23)CN(C(=O)C(F)F)C1 [Example 117] | < 100 nM |
| CC(C)(O)Cn1cc(C(=O)N[C@H]2C[C@@H](Nc3cc(C(F)(F)F)nc4ccc(Cl)cc34)CN(C(=O)C(F)F)C2)c(Cl)n1 [Example 118] | < 100 nM |
| O=C(N[C@H]1C[C@@H](Nc2cc(C(F)(F)F)nc3ccc(Cl)cc23)CN(C(=O)C(F)F)C1)c1cn(CC2(O)CCC2)nc1Cl [Example 119] | < 100 nM |
| O=C(N[C@H]1C[C@@H](Nc2cc(C(F)(F)F)nc3ccc(Cl)cc23)CN(C(=O)C(F)F)C1)c1cn(C[C@H](O)C(F)F)nc1Cl [Example 120] | < 100 nM |
| O=C(N[C@H]1C[C@@H](Nc2cc(C(F)(F)F)nc3ccc(Cl)cc23)CN(C(=O)C(F)F)C1)c1cn(C2CCC(F)(F)CC2)nc1Cl [Example 121] | < 100 nM |
| CC(C)(O)C(O)Cn1cc(C(=O)N[C@H]2C[C@@H](Nc3cc(C(F)(F)F)nc4ccc(Cl)cc34)CN(C(=O)C(F)F)C2)c(Cl)n1 (stereo partly shown) [Example 122] | < 100 nM |
| C[C@@H](O)Cn1cc(C(=O)N[C@H]2C[C@@H](Nc3cc(C(F)(F)F)nc4ccc(Cl)cc34)CN(C(=O)C(F)F)C2)c(Cl)n1 [Example 123] | < 100 nM |

The remaining lines, values ahead:

| EC50 | Compound |
| --- | --- |
| < 100 nM | CS(=O)(=O)Nc1cccc(C(=O)N[C@H]2C[C@@H](Nc3cc(C(F)(F)F)nc4ccc(Cl)cc34)CN(C(=O)C(F)F)C2)c1 [Example 72] |
| < 100 nM | O=C(N[C@H]1C[C@@H](Nc2cc(C(F)(F)F)nc3ccc(Cl)cc23)CN(C(=O)[C@H]2CC2(F)F)C1)c1cn(CC(F)(F)F)nc1C1CC1 [Example 74] |
| < 100 nM | O=C(N[C@H]1C[C@@H](Nc2cc(C(F)(F)F)nc3ccc(Cl)cc23)CN(C(=O)[C@@H]2CC2(F)F)C1)c1cn(CC(F)(F)F)nc1C1CC1 [Example 75] |
| < 100 nM | CC(C)(O)Cn1cc(C(=O)N[C@H]2C[C@@H](Nc3cc(C(F)(F)F)nc4ccc(Cl)cc34)CN(C(=O)[C@H]3CC3(F)F)C2)c(Cl)n1 [Example 78] |
| < 100 nM | COCC(F)(F)C(=O)N1C[C@@H](NC(=O)c2cn(CC(C)(C)O)nc2Cl)C[C@@H](Nc2cc(C(F)(F)F)nc3ccc(Cl)cc23)C1 [Example 79] |
| < 100 nM | CC(C)(O)Cn1cc(C(=O)N[C@H]2C[C@@H](Nc3cc(C(F)(F)F)nc4ccc(Cl)cc34)CN(C(=O)COC(F)(F)F)C2)c(Cl)n1 [Example 80] |
| < 100 nM | CC(C)(O)Cn1cc(C(=O)N[C@H]2C[C@@H](Nc3cc(C(F)(F)F)nc4ccc(Cl)cc34)CN(C(=O)C3(F)CC3)C2)c(Cl)n1 [Example 81] |
| < 100 nM | CC(C)(O)Cn1cc(C(=O)N[C@H]2C[C@@H](Nc3cc(C(F)(F)F)nc4ccc(Cl)cc34)CN(C(=O)C3(C(F)(F)F)CC3)C2)c(Cl)n1 [Example 82] |
| < 100 nM | CC(C)(O)Cn1cc(C(=O)N[C@H]2C[C@@H](Nc3c(F)c(C(F)(F)F)nc4ccc(Cl)cc34)CN(C(=O)C(C)(C)F)C2)c(Cl)n1 [Example 83] |
| < 100 nM | CC(C)(O)Cn1cc(C(=O)N[C@H]2C[C@@H](Nc3cc(C(F)(F)F)nc4ccc(Cl)cc34)CN(C(=O)OCC(F)(F)F)C2)c(Cl)n1 [Example 84] |
| < 100 nM | CC(C)(O)Cn1cc(C(=O)N[C@H]2C[C@@H](Nc3cc(C(F)(F)F)nc4ccc(Cl)cc34)CN(C(=O)c3ccccc3F)C2)c(Cl)n1 [Example 85] |
| < 100 nM | CC(C)(O)Cn1cc(C(=O)N[C@H]2C[C@@H](Nc3cc(C(F)(F)F)nc4ccc(Cl)cc34)CN(C(=O)[C@H](NC(=O)C(F)(F)F)c3ccccc3)C2)c(Cl)n1 [Example 86] |
| < 100 nM | COCC(F)(F)C(=O)N1C[C@@H](NC(=O)c2cn(CC(F)(F)F)nc2C2CC2)C[C@@H](Nc2cc(C(F)(F)F)nc3ccc(Cl)cc23)C1 [Example 87] |
| < 100 nM | CC(C)(O)Cn1cc(C(=O)N[C@H]2C[C@@H](Nc3cc(C(F)(F)F)nc4ccc(Cl)cc34)CN(C(=O)C(F)(F)c3ccc(C#N)cc3)C2)c(Cl)n1 [Example 88] |
| < 100 nM | O=C(N[C@H]1C[C@@H](Nc2cc(C(F)(F)F)nc3ccc(Cl)cc23)CN(C(=O)C(F)(F)F)C1)c1cn(CC(F)(F)F)nc1C1CC1 [Example 89] |
| < 100 nM | O=C(N[C@H]1C[C@@H](Nc2cc(C(F)(F)F)nc3ccc(Cl)cc23)CN(C(=O)C(F)F)C1)c1cn(CC(F)(F)F)nc1C1CC1 [Example 90] |
| < 100 nM | O=C(N[C@H]1C[C@@H](Nc2cc(C(F)(F)F)nc3ccc(Cl)cc23)CN(c2ccccn2)C1)c1cn(CC(F)(F)F)nc1C1CC1 [Example 92] |
| < 100 nM | Cn1nnc(N2C[C@@H](NC(=O)c3cn(CC(F)(F)F)nc3C3CC3)C[C@@H](Nc3cc(C(F)(F)F)nc4ccc(Cl)cc34)C2)n1 [Example 93] |
| < 100 nM | CC(=O)N1C[C@@H](NC(=O)c2c[nH]c3ncccc23)C[C@@H](Nc2cc(C(F)(F)F)nc3ccc(Cl)cc23)C1 [Example 94] |
| < 100 nM | CC(=O)N1C[C@@H](NC(=O)c2cn(CC(C)(C)O)nc2C(F)(F)F)C[C@@H](Nc2cc(C(F)(F)F)nc3ccc(Cl)cc23)C1 [Example 95] |
| < 100 nM | CC(=O)N1C[C@@H](NC(=O)c2cn(CC(F)(F)F)nc2C(F)(F)F)C[C@@H](Nc2cc(C(F)(F)F)nc3ccc(Cl)cc23)C1 [Example 96] |
